Entries after “also recorded” stand apart in the source; their conditions may differ.
System: male Wistar rats
Assay: MK-801-induced persistent latent inhibition (LI), thirst motivated conditioned emotional response procedure
Format: in vivo, rat
From the text: Latent inhibition (“LI”) is the process whereby pre-exposure to a stimulus retards conditioning to this stimulus when it is subsequently paired with reinforcement, and it has been used extensively to model cognitive impairments in schizophrenia. […] Briefly, amphetamine disrupts LI in rats and normal humans, and this is paralleled by disrupted LI in acute schizophrenia patients. Amphetamine-induced LI disruption is reversed by both typical and atypical APDs.
The rats used were male Wistar rats approximately five months old, weighing 350 g to 500 g.
Rats were tested in Campden Instruments rodent test chambers with a retractable bottle. When the bottle was not present, the hole was covered by a metal lid. Licks were detected by a Campden Instruments drinkometer. The preexposed to-be-conditioned stimulus was a 10 sec, 80 dB, 2.8 kHz tone produced by a Sonalert module. Shock was supplied through the floor by a Campden Instruments shock generator and shock scrambler set at 0.5 mA and 1 sec duration. Equipment programming and data recording were computer controlled.
LI was measured in a thirst motivated conditioned emotional response (“CER”) procedure by comparing the suppression of drinking to a tone previously paired with a foot shock in rats that received non-reinforced exposure to the tone prior to conditioning (preexposed) and in rats for whom the tone was novel (non-preexposed).
Prior to the beginning of each LI experiment, rats were handled for about 2 min daily for 8 days. On day 9, a 23 h water restriction schedule was initiated and continued throughout the experiment. After 5 days of deprivation (days 9-13), rats were trained to drink in the experimental chambers for the next 5 days (days 14-18), for 20 min during the 1st day and for 15 min per day during each of the next 4 days. Water in the test apparatus was given in addition to the daily ration of 1 h given in the home cages. The LI procedure was conducted on days 19-22 and consisted of the following stages:
With the bottle removed, the preexposed (“PE”) rats received 40 tone presentations with an inter-stimulus interval of 50 sec. The nonpreexposed (“NPE”) rats were confined to the chamber for an identical period of time without receiving the tone.
With the bottle removed, each rat received 5 tone-shock pairings given 5 min apart. Shock immediately followed tone termination. The first tone-shock pairing was given 5 min after the start of the session. After the last pairing, rats were left in the experimental chamber for an additional 5 min. […]
Each rat was placed in the chamber and allowed to drink from the bottle. […] The following times were recorded: Time to first lick, time to complete licks 1-50, time to complete licks 51-75 (before tone onset) and time to complete licks 76-100 (after tone onset). […]

Compound | LI (difference between preexposed and nonpreexposed groups in log times to complete licks 76-100) (MK-801 0.05 mg/kg i.p. 30 min before conditioning, vehicle pretreatment, 40 preexposures, 5 conditioning trials) | LI / reversal of abnormally persistent LI in MK-801-treated rats (25 mg/kg ladostigil tartrate p.o. chronic + MK-801 0.05 mg/kg i.p.) | LI (difference between preexposed and nonpreexposed groups in log times to complete licks 76-100) (37.5 mg/kg ladostigil tartrate p.o. chronic + MK-801 0.05 mg/kg i.p.) | Effect on LI of drug on its own (ladostigil tartrate 25 mg/kg and 37.5 mg/kg p.o. chronic + saline (no MK-801))
C[C@]12N[C@H](Cc3ccccc31)c1ccccc12 [MK-801, dizocilpine, reference compound] | significant difference between the preexposed and nonpreexposed groups, namely, LI; also recorded: persisted in showing LI |  |  | 
R(+)-6-(N-methyl, N-ethyl-carbamoyloxy)-N′-propargyl-1-aminoindan ½ tartrate [ladostigil tartrate] |  | reversed abnormally persistent LI | significant difference between the preexposed and nonpreexposed groups, namely, LI | had no effect

Reference: patent US20070232691A1, “Use of ladostigil for the treatment of schizophrenia” (priority 2006, published 2007)
